# Residues, ends and D or L forms follow the SMILES beside them. *: point of attachment. Biotin = O=C1N[C@H]2[C@H](CS[C@H]2CCCCC(=O)*)N1; Ahx = NCCCCCC(=O)O
# Columns and labels:
# [1] = tested on: fibroblasts from lungs of patients with systemic sclerosis (SSc); test: SMA and Collagen 1A2 RNA in SSc lung fibroblasts; format: cell-based, human
# Description: Fibroblasts were treated with TGFbeta with or without peptide Bio96-17 for 48 hours. RNA was extracted and levels of alpha smooth muscle actin (SMA) measured by qRT-PCR.
# SSc fibroblasts were treated with 10 μg/ml BioE4-03 for 72 hours. RNA was extracted and used to measure SMA and Collagen 1A2.
# [2] = tested on: fibroblasts from lungs of patients with Idiopathic Pulmonary Fibrosis (IPF); test: SMA and Collagen 1A2 RNA in IPF lung fibroblasts; format: cell-based, human; conditions: IPF lung fibroblasts (FIG. 17)
# [3] = tested on: me-38 colon adenocarcinoma tumor cells; test: Colon adenocarcinoma tumor growth in mice, peptide by oral gavage; format: in vivo; conditions: sMIC tolerant transgenic mice, 100 μg/mouse oral gavage twice/week
# Description: For each of the experiments, descriptive statistics (means and standard deviations) for tumor volumes were calculated over time for each experimental group (i.e. Experiment 1: Control vs. BioE4 (FIG. 1); Experiment 2: PBS, Bio96, and BioE4-03 (FIG. 5)). Since tumor growth tends to be curvilinear, general linear mixed models (GLMMs) were created to estimate treatment-specific growth curves over time and to make comparisons between the peptide treatments and control. Separate GLMMs were constructed for each experiment, and each GLMM included random effects for each mouse, to control for the fact that the repeated volume measurements within a given mouse were correlated with one another. […] If a mouse's tumor grew too large, it was sacrificed; however, all tumor volumes measured prior to sacrifice were included in the modeling process. […]
# sMIC tolerant transgenic (MB481 strain) mice (Liu et al, Perturbation of NK cell peripheral homeostasis accelerates prostate carcinoma metastasis. J. Clin. Invest. 123:4410, 2013) were injected with 1×10^5 me-38 colon adenocarcinoma tumor cells via subcutaneous injection When tumor size reached approximately 75 mm^3, treatment was started. start treatment at four group. […] Tumor volume was measured 3 times per week. […]
# [4] = tested on: tumors; test: Histologic analysis of tumors (H&E, Masson Trichrome); format: in vivo, mouse
# Description: Histological analysis of tumors treated with vehicle alone, or with BioE4-03 or Bio96 peptides was performed.
# [5] = tested on: TRAMP C-2 mouse prostate tumor cells; test: Prostate tumor growth in mice, peptide by oral gavage; format: in vivo; conditions: C57BL6 mice, TRAMP C-2 tumors, 50 μg/dose oral gavage twice per week, vs water control
# Description: For each of the experiments, descriptive statistics (means and standard deviations) for tumor volumes were calculated over time for each experimental group (i.e. Experiment 1: Control vs. BioE4 (FIG. 1); Experiment 2: PBS, Bio96, and BioE4-03 (FIG. 5)). Since tumor growth tends to be curvilinear, general linear mixed models (GLMMs) were created to estimate treatment-specific growth curves over time and to make comparisons between the peptide treatments and control. Separate GLMMs were constructed for each experiment, and each GLMM included random effects for each mouse, to control for the fact that the repeated volume measurements within a given mouse were correlated with one another. Tumor volume served as the dependent variable in each model, while time (in days), time^2, treatment, treatment×time, and treatment×time^2 were included as independent variables. Using these models, the estimated mean tumor volumes at specific selected time points and the mean rate of change in the tumor volumes at specific selected time points were compared. If a mouse's tumor grew too large, it was sacrificed; however, all tumor volumes measured prior to sacrifice were included in the modeling process. […]
# Two groups of wild type C57BL6 mice from Jax Labs were injected with TRAMP C-2 mouse prostate tumor cells in the right flank. […] Tumors were measured 3 times/week. […]
compound,measurement,setting,value
CC(C)C[C@H](NC(=O)[C@H](CC(C)C)NC(=O)[C@H](CCCNC(=N)N)NC(=O)CNC(=O)CNC(=O)[C@H](CC(C)C)NC(=O)[C@H](CC(C)C)NC(=O)[C@H](CO)NC(=O)[C@H](CO)NC(=O)[C@H](C)NC(=O)[C@H](CCC(N)=O)NC(=O)CNC(=O)[C@@H](NC(=O)[C@H](C)NC(=O)[C@H](CO)NC(=O)[C@@H]1CCCN1C(=O)[C@H](C)NC(=O)[C@H](CCC(=O)O)NC(=O)[C@@H](NC(=O)[C@H](CCCNC(=N)N)NC(=O)[C@H](Cc1c[nH]c2ccccc12)NC(=O)[C@@H](NC(=O)[C@H](CCC(=O)O)NC(=O)[C@H](CS)NC(=O)[C@H](Cc1ccc(O)cc1)NC(=O)[C@H](CO)NC(=O)CCCCCNC(=O)CCCC[C@@H]1SC[C@@H]2NC(=O)N[C@@H]21)[C@@H](C)O)[C@@H](C)O)[C@@H](C)O)C(=O)NCC(=O)N[C@@H](CCC(N)=O)C(=O)N[C@@H](CO)C(=O)N[C@@H](C)C(=O)N[C@@H](C)C(=O)N[C@@H](CO)C(=O)N[C@@H](CS)C(=O)N[C@@H](Cc1c[nH]cn1)C(=O)N[C@@H](Cc1c[nH]cn1)C(=O)N[C@@H](C)C(N)=O [BioE4-03] ({Biotin-Ahx}-SYCETWRTEAPSATGQASSLLGGRLLGQSAASCHHA-NH2),Coll1A2 levels,"[1]; 10 μg/ml, 72 hours (FIG. 16)",significant reduction
same,SMA levels,"[1]; 10 μg/ml, 72 hours (FIG. 16)",significant reduction
same,Coll1A2 levels,[2],trend towards decrease
same,SMA levels,[2],trend towards decrease
"CC(C)C[C@H](NC(=O)[C@H](CC(C)C)NC(=O)[C@H](CO)NC(=O)[C@H](CO)NC(=O)[C@H](C)NC(=O)[C@H](CCC(N)=O)NC(=O)CNC(=O)[C@@H](NC(=O)[C@H](C)NC(=O)CCCC[C@@H]1SC[C@@H]2NC(=O)N[C@@H]21)[C@@H](C)O)C(N)=O [Bio96, Biotin-NH2-ATGQASSLL-CONH2] (Biotin-ATGQASSLL-NH2)",mean rate of increase in the tumor volume at day 21 (model-based estimate),[3]; PBS control 151.1 mm^3 per day,90.6 mm^3 per day
same,mean tumor volume at day 21 (model-based estimate),[3]; PBS control 1492.1 mm^3,871.4 mm^3
same,tumor cell arrangement,"[4]; H&E staining, tumors from treated mice",looser cell arrangement
same,collagen bundles in the tumors,"[4]; Masson Trichrome stain, compared to vehicle treated mice",thinner collagen bundles
CC(C)C[C@H](NC(=O)[C@H](CC(C)C)NC(=O)[C@H](CCCNC(=N)N)NC(=O)CNC(=O)CNC(=O)[C@H](CC(C)C)NC(=O)[C@H](CC(C)C)NC(=O)[C@H](CO)NC(=O)[C@H](CO)NC(=O)[C@H](C)NC(=O)[C@H](CCC(N)=O)NC(=O)CNC(=O)[C@@H](NC(=O)[C@H](C)NC(=O)CCCC[C@@H]1SC[C@@H]2NC(=O)N[C@@H]21)[C@@H](C)O)C(=O)NCC(=O)N[C@@H](CCC(N)=O)C(=O)N[C@@H](CO)C(=O)N[C@@H](C)C(=O)N[C@@H](C)C(=O)N[C@@H](CO)C(=O)N[C@@H](CS)C(=O)N[C@@H](Cc1c[nH]cn1)C(=O)N[C@@H](Cc1c[nH]cn1)C(=O)N[C@@H](C)C(N)=O [Bio96-17] (Biotin-ATGQASSLLGGRLLGQSAASCHHA-NH2),Coll1A2 levels,[1]; Bio96-17 treatment (FIG. 15),significant reduction
same,SMA levels,[1]; Bio96-17 treatment (FIG. 15),significant reduction
Biotin-SYCETWRTEAPSATGQASSLLGGRLLGQSAASCHHAYIVLCIENSFMT-NH2 (cysteines drawn unpaired) [BioE4],mean rate of increase in the tumor volume on day 15 (model-based estimate),[5],significantly (p=0.02) greater in the Control group when compared to the BioE4 group
same,mean tumor volume at day 15 (model-based estimate),[5],significantly (p=0.0001) greater in the Control group when compared to the BioE4 group
